Test results from patent publication US10336761B2, “TGFβ receptor antagonist” (BRISTOL-MYERS SQUIBB COMPANY, priority 2015, dated 2019).

The molecules below were run against HIS-TGFβR1 T204D (Homo sapiens (Human), UniProt P36897, T204D) (assay: HTRF probe-displacement assay, HIS-TGFβR1 T204D). Conditions: 1 hour at room temperature.
Assay type: binding

Sequence of HIS-TGFβR1 T204D (P36897 34-503 T204D): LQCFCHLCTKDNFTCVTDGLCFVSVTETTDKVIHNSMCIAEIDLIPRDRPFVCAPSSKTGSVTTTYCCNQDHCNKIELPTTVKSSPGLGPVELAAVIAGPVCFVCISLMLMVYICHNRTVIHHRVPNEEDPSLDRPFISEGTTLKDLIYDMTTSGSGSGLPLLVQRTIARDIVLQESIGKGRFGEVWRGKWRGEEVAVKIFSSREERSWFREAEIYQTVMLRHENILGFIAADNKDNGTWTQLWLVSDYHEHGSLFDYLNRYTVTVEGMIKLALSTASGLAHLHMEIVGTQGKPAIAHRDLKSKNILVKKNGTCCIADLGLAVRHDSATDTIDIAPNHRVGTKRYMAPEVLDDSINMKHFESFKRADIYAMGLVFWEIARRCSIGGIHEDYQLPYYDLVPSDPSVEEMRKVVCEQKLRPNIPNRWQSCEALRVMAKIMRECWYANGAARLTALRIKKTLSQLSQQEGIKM

| IC50 [nM] | Structure (SMILES) |
| --- | --- |
| 23 | O=C(NCCOCCO)c1cnccc1Nc1nc(-c2cccc(C(F)F)n2)nn2cccc12 [Example 174, 4-({2-[6-(difluoromethyl)pyridin-2-yl]pyrrolo[2,1-f][1,2,4]triazin-4-yl}amino)-N-[2-(2-hydroxyethoxy)ethyl]pyridine-3-carboxamide] |
| 4.2 | Fc1cnccc1Nc1nc(-c2ccccn2)nn2ccc(CNCCN3CCNCC3)c12 [Example 269, 3-fluoro-N-[5-({[2-(piperazin-1-yl)ethyl]amino}methyl)-2-(pyridin-2-yl)pyrrolo[2,1-f][1,2,4]triazin-4-yl]pyridin-4-amine] |
| 3.6 | CC(=O)Nc1cc(Nc2nc(-c3ccc(F)c(C)n3)nn3cccc23)c(F)cn1 [Example 333, N-(5-fluoro-4-{[2-(5-fluoro-6-methylpyridin-2-yl)pyrrolo[2,1-f][1,2,4]triazin-4-yl]amino}pyridin-2-yl)acetamide] |
| 3000 | COc1cccc(-c2nc(Nc3ccncc3NC(=O)CN3CCOCC3)c3cccn3n2)n1 [Example 212, N-(4-{[2-(6-methoxypyridin-2-yl)pyrrolo[2,1-f][1,2,4]triazin-4-yl]amino}pyridin-3-yl)-2-(morpholin-4-yl)acetamide] |
| 3 | CN1CCN(Cc2ccn3nc(-c4ccc(F)cn4)nc(Nc4ccncc4F)c23)CC1 [Example 234, 3-fluoro-N-[2-(5-fluoropyridin-2-yl)-5-[(4-methylpiperazin-1-yl)methyl]pyrrolo[2,1-f][1,2,4]triazin-4-yl]pyridin-4-amine] |
| 3.3 | O=C(CCC(F)(F)F)Nc1cc(Nc2nc(-c3cccc(C(F)(F)F)n3)nn3cccc23)ccn1 [Example 337, 4,4,4-trifluoro-N-[4-({2-[6-(trifluoromethyl)pyridin-2-yl]pyrrolo[2,1-f][1,2,4]triazin-4-yl}amino)pyridin-2-yl]butanamide] |
| 30 | C=Cc1cc2c(Nc3ccncc3F)nc(-c3cccc(OC)n3)nn2c1 [Example 210, N-[6-ethenyl-2-(6-methoxypyridin-2-yl)pyrrolo[2,1-f][1,2,4]triazin-4-yl]-3-fluoropyridin-4-amine] |
| 4.7 | Cc1nnc(NCc2ccn3nc(-c4ccccn4)nc(Nc4ccncc4F)c23)s1 [Example 308, 3-fluoro-N-(5-{[(5-methyl-1,3,4-thiadiazol-2-yl)amino]methyl}-2-(pyridin-2-yl)pyrrolo[2,1-f][1,2,4]triazin-4-yl)pyridin-4-amine] |
| 16 | CC(=O)Nc1cc(Nc2nc(-c3ccc(F)cn3)nn3cccc23)c(F)cn1 [Example 323, N-(5-fluoro-4-{[2-(5-fluoropyridin-2-yl)pyrrolo[2,1-f][1,2,4]triazin-4-yl]amino}pyridin-2-yl)acetamide] |
| 1.2 | OC12C[C@H]3C[C@@H](C1)CC(NCc1ccn4nc(-c5ccccn5)nc(Nc5ccncc5F)c14)(C3)C2 [Example 237, (5R,7S)-3-[({4-[(3-fluoropyridin-4-yl)amino]-2-(pyridin-2-yl)pyrrolo[2,1-f][1,2,4]triazin-5-yl}methyl)amino]adamantan-1-ol] |
| 5.3 | Fc1cnccc1Nc1nc(-c2ccccn2)nn2ccc(CNc3ccc4[nH]nnc4c3)c12 [Example 306, N-({4-[(3-fluoropyridin-4-yl)amino]-2-(pyridin-2-yl)pyrrolo[2,1-f][1,2,4]triazin-5-yl}methyl)-1H-1,2,3-benzotriazol-5-amine] |
| 0.85 | CC(=O)N1CCN(CC(=O)Nc2cc(Nc3nc(-c4cccc(C(F)(F)F)n4)nn4cccc34)ccn2)CC1 [Example 320, 2-(4-acetylpiperazin-1-yl)-N-[4-({2-[6-(trifluoromethyl)pyridin-2-yl]pyrrolo[2,1-f][1,2,4]triazin-4-yl}amino)pyridin-2-yl]acetamide] |
| 28 | Cc1cccc(-c2nc(Nc3ccncc3C(=O)NC3CCOC3)c3cccn3n2)n1 (centres unmarked) [Example 161, 4-{[2-(6-methylpyridin-2-yl)pyrrolo[2,1-f][1,2,4]triazin-4-yl]amino}-N-(oxolan-3-yl)pyridine-3-carboxamide] |
| 5.1 | O=C(CC(F)(F)F)Nc1cc(Nc2nc(-c3cccc(C(F)(F)F)n3)nn3cccc23)ccn1 [Example 344, 3,3,3-trifluoro-N-[4-({2-[6-(trifluoromethyl)pyridin-2-yl]pyrrolo[2,1-f][1,2,4]triazin-4-yl}amino)pyridin-2-yl]propanamide] |
| 6.3 | OCC1(NCc2ccn3nc(-c4ccccn4)nc(Nc4ccncc4F)c23)CCCC1 [Example 244, {1-[({4-[(3-fluoropyridin-4-yl)amino]-2-(pyridin-2-yl)pyrrolo[2,1-f][1,2,4]triazin-5-yl}methyl)amino]cyclopentyl}methanol] |
| 4.8 | Cc1cccc(-c2nc(Nc3ccncc3C(=O)NCCCO)c3cccn3n2)n1 [Example 159, N-(3-hydroxypropyl)-4-{[2-(6-methylpyridin-2-yl)pyrrolo[2,1-f][1,2,4]triazin-4-yl]amino}pyridine-3-carboxamide] |
| 0.93 | Cc1cccc(-c2nc(Nc3ccncc3F)c3c(CN4CCN(CCO)CC4)ccn3n2)n1 [Example 259, 2-[4-({4-[(3-fluoropyridin-4-yl)amino]-2-(6-methylpyridin-2-yl)pyrrolo[2,1-f][1,2,4]triazin-5-yl}methyl)piperazin-1-yl]ethan-1-ol] |
| 9.2 | COc1cccc(-c2nc(Nc3ccncc3CO)c3cccn3n2)n1 [Example 206, (4-{[2-(6-methoxypyridin-2-yl)pyrrolo[2,1-f][1,2,4]triazin-4-yl]amino}pyridin-3-yl)methanol] |
| 22 | COCc1noc(CNC(=O)c2cnccc2Nc2nc(-c3cccc(C(F)F)n3)nn3cccc23)n1 [Example 205, 4-({2-[6-(difluoromethyl)pyridin-2-yl]pyrrolo[2,1-f][1,2,4]triazin-4-yl}amino)-N-{[3-(methoxymethyl)-1,2,4-oxadiazol-5-yl]methyl}pyridine-3-carboxamide] |

The remaining lines, values behind:

| Structure (SMILES) | IC50 [nM] |
| --- | --- |
| CC(C)(O)CNCc1ccn2nc(-c3cccc(C(F)F)n3)nc(Nc3ccncc3F)c12 [Example 116, 1-[({2-[6-(difluoromethyl)pyridin-2-yl]-4-[(3-fluoropyridin-4-yl)amino]pyrrolo[2,1-f][1,2,4]triazin-5-yl}methyl)amino]-2-methylpropan-2-ol] | 2.3 |
| COc1cccc(-c2nc(Nc3ccnc(NCCC(C)(C)O)c3)c3cccn3n2)n1 [Example 134, 4-[(4-{[2-(6-methoxypyridin-2-yl)pyrrolo[2,1-f][1,2,4]triazin-4-yl]amino}pyridin-2-yl)amino]-2-methylbutan-2-ol] | 360 |
| Cn1nccc1-c1nc(Nc2ccncc2Cl)c2cccn2n1 [Example 81, 3-chloro-N-[2-(1-methyl-1H-pyrazol-5-yl)pyrrolo[2,1-f][1,2,4]triazin-4-yl]pyridin-4-amine] | 360 |
| COc1cccc(-c2nc(Nc3ccnc(NCCN4CCC(O)CC4)c3)c3c(C)ccn3n2)n1 [Example 136, 1-{2-[(4-{[2-(6-methoxypyridin-2-yl)-5-methylpyrrolo[2,1-f][1,2,4]triazin-4-yl]amino}pyridin-2-yl)amino]ethyl}piperidin-4-ol] | 720 |
| CCc1cc2c(Nc3ccncc3F)nc(-c3cccc(OC)n3)nn2c1 [Example 42, N-[6-ethyl-2-(6-methoxypyridin-2-yl)pyrrolo[2,1-f][1,2,4]triazin-4-yl]-3-fluoropyridin-4-amine] | 160 |
| COc1cccc(-c2nc(Nc3ccncc3F)c3cc(CCCCN4CCN(C)CC4)cn3n2)n1 [Example 43, 3-fluoro-N-[2-(6-methoxypyridin-2-yl)-6-[4-(4-methylpiperazin-1-yl)butyl]pyrrolo[2,1-f][1,2,4]triazin-4-yl]pyridin-4-amine] | 2200 |
| COc1cccc(-c2nc(Nc3ccncc3F)c3c(C(O)CO)ccn3n2)n1 (centres unmarked) [Example 28, 1-{4-[(3-fluoropyridin-4-yl)amino]-2-(6-methoxypyridin-2-yl)pyrrolo[2,1-f][1,2,4]triazin-5-yl}ethane-1,2-diol] | 16 |
| Cc1cccc(-c2nc(Nc3ccncc3OCCCCN(C)C)c3cccn3n2)n1 [Example 51, 3-[4-(dimethylamino)butoxy]-N-[2-(6-methylpyridin-2-yl)pyrrolo[2,1-f][1,2,4]triazin-4-yl]pyridin-4-amine] | 30 |
| Fc1ccc(-c2nc(Nc3ccncc3Cl)c3cccn3n2)nc1 [Example 4, 3-chloro-N-[2-(5-fluoropyridin-2-yl)pyrrolo[2,1-f][1,2,4]triazin-4-yl]pyridin-4-amine] | 0.59 |
| CC(=O)Nc1cc(Nc2nc(-c3ccccn3)nn3ccc(CN4CCC(F)(F)CC4)c23)ccn1 [Example 24, N-[4-({5-[(4,4-difluoropiperidin-1-yl)methyl]-2-(pyridin-2-yl)pyrrolo[2,1-f][1,2,4]triazin-4-yl}amino)pyridin-2-yl]acetamide] | 0.4 |
| O=C(NCCCN1CCCC1=O)c1cnccc1Nc1nc(-c2ccccn2)nn2cccc12 [Example 149, N-[3-(2-oxopyrrolidin-1-yl)propyl]-4-{[2-(pyridin-2-yl)pyrrolo[2,1-f][1,2,4]triazin-4-yl]amino}pyridine-3-carboxamide] | 49 |
| COc1cccc(-c2nc(Nc3ccncc3F)c3ccc(F)n3n2)n1 [Example 41, 3-fluoro-N-[7-fluoro-2-(6-methoxypyridin-2-yl)pyrrolo[2,1-f][1,2,4]triazin-4-yl]pyridin-4-amine] | 87 |
| O=C(NCCCN1CCCC1)c1cnccc1Nc1nc(-c2cccc(C(F)(F)F)n2)nn2cccc12 [Example 37] | 47 |
| FC(F)(F)c1cccc(-c2nc(Nc3ccncc3OCCCN3CCOCC3)c3cccn3n2)n1 [Example 75] | 210 |
| CCOc1cccc(-c2nc(Nc3ccncc3F)c3cccn3n2)n1 [Example 102, N-[2-(6-ethoxypyridin-2-yl)pyrrolo[2,1-f][1,2,4]triazin-4-yl]-3-fluoropyridin-4-amine] | 15 |
| COC(=O)Nc1cc2c(Nc3ccncc3F)nc(-c3cccc(OC)n3)nn2c1 [Example 73, Methyl N-{4-[(3-fluoropyridin-4-yl)amino]-2-(6-methoxypyridin-2-yl)pyrrolo[2,1-f][1,2,4]triazin-6-yl}carbamate] | 74 |
